Three compounds from patent publication US20260256909A1, “COMBINATION OF A BTN3A ACTIVATING ANTIBODY, A BCL2 INHIBITOR AND HYPOMETHYLATING AGENT FOR USE IN TREATING CANCER” (Imcheck Therapeutics, priority 2022, published 2026) can be followed below.

Read-outs that look alike come from different tables or passages of the source.

Broadly, the EC50 is the concentration giving half of the maximal effect.

Holding throughout (format): cell-based, human
Test [1] has as its system Vγ9Vδ2 T cells. Description: Survival of Vγ9Vδ2 T cells in HD-PBMC (Caspase3/7 and dead cell marker, flow cytometry). As to conditions: HD-PBMC, 48 h; for CC50: in presence of isotype control (hIgG1S 1 μg/mL). The procedure: The effect of ICT01 on the survival of Vγ9Vδ2 T cells upon treatment with Bcl-2 family member inhibitors was assessed in Peripheral Blood Mononuclear Cells from Healthy Donors (HD-PBMC) using the apoptotic marker Caspase3/7 and a dead cell marker in flow cytometry analysis.
Peripheral Blood Mononuclear Cells (PBMC) were isolated by Ficoll density gradient centrifugation of peripheral blood (EDTA-buffy coats) from healthy donors (HD, n=4-6), cultured in PBMC medium (RPMI 1640 Medium supplemented with 10% Fetal Bovine Serum (FBS), 1% Penicillin/Streptomycin and 1 mM Sodium Pyruvate) and treated with ICT01 or its isotype control (hIgG1S) used at 1 μg/mL in the presence or absence of increasing concentrations of Venetoclax (0-0.1 μM), 5-Azacytidine (0-0.4 μM) or the combination, or ABT-737 (0-1.875 μM), Navitoclax (0-1.875 μM) or MIK665 (0-1.875 μM). Cells were harvested on day 2, centrifuged at 1800 rpm for 5 minutes and then incubated 10 minutes at room temperature (RT) with 25 μl of FcR blocking reagent (Miltenyi Biotec) before adding 25 μL of the following antibody mix prepared in PBS+2% FBS+2 mM EDTA (FACS buffer): anti-CD4-BUV395, CD56-BV421, Vd2-PE, CD3-PE-CF594 and CD8-A700 antibodies for the identification of immune subsets, anti-CD25-BV650 and CD69-APC antibodies were added to monitor activation status of Vγ9Vδ2 T cells, and a viability marker (LIVE/DEAD™ Fixable Dead Cell Stain) was added to distinguish live from dead cells. Cells were incubated 20 minutes at room temperature (RT) and washed 2 times with FACS buffer. A Caspase3/7 Green detection reagent (ThermoFisher) was added to determine apoptosis and cells were incubated for 30 minutes at RT before flow cytometry analysis.
In a similar experiment, freshly isolated PBMC were stimulated with ICT01 or its isotype control hIgG1S for 1 day prior to a 2 day-treatment with Venetoclax (FIG. 3a). The number of live Vγ9Vδ2 T cells was assessed by flow cytometry at the end of the incubation time.

In test [2] the test system is KG1a AML cells. Description: Killing of KG1a AML cells in co-culture with HD-PBMC (flow cytometry). Conditions: for KG1a cell death / reduction of living KG1a cells as compared to control: alone or with ICT01 0.1 μg/mL, HD-PBMC ratio 5:1, 2 days. The procedure:
A) Sensitivity of KG1a cell line to Venetoclax, 5-Azacytidine or the combination. […] N=2 experiments. B) Mean±SEM relative number of Live KG1a AML cells monitored by flow cytometry after 3 days of co-culture with HD-PBMC (E:T ratio 25:1) treated with ICT01 (black) or its isotype control (hIgG1S, light grey) at 0.1 or 1 μg/mL. N=6, each dot represents one healthy donor. C) Schematic representation of treatment schedule for killing of KG1a AML cells by HD-PBMC. D) Relative number of Live KG1a AML cells (Mean±SEM) (left) and Frequency of Live KG1a AML cell relative to no Venetoclax or 5-Azacytidine treatment (Mean±SEM) (right) after 3 days of co-culture with HD-PBMC in presence of ICT01 (black) or its isotype control (hIgG1S, light grey) and treatment with Venetoclax, 5-Azacytidine or the combination. N=6, each dot represents one healthy donor, * p<0.05, Wilcoxon test.
KG1a cells were co-cultured with HD-PBMC at ratio 5:1 in presence of m20.1 or isotype control (0.1 μg/mL). After 6 hrs, indicated concentrations of Venetoclax, 5-Azacytidine or the combination were added to the culture. Relative number of live KG1a was monitored after 48 hrs by flow cytometry. […] N=6, each dot represents one healthy donor, * p<0.05, ** p<0.01, *** p<0.001, **** p<0.0001, 2 way ANOVA.
(§1) KG1a or MOLM14 AML cell lines were co-cultured with HD-PBMC at ratio 5:1 in presence of ICT01 or isotype control (0.1 μg/mL). After 6 hrs, indicated concentrations of ABT-737, Navitoclax or MIK665 were added to the culture. A) Relative numbers of live KG1a cells (Mean±SEM) after 2 days of co-culture with HD-PBMC in presence of ICT01 (black) or its isotype control hIgG1S (light grey) and treatment with indicated concentration of ABT-737. B) Relative numbers of live KG1a cells (Mean±SEM) after 2 days of co-culture with HD-PBMC in presence of ICT01 (black) or its isotype control hIgG1S (light grey) and treatment with indicated concentration of Navitoclax. C) Relative numbers of live MOLM14 cells (Mean±SEM) after 2 days of co-culture with HD-PBMC in presence of ICT01 (black) or its isotype control hIgG1S (light grey) and treatment with indicated concentration of MIK665. N=6 HD, each dot represents one healthy donor, * p<0.05, 2 way ANOVA.
The effect of Venetoclax and 5-Azacytidine on anti-BTN3A antibodies-induced killing of AML cell lines by Vγ9Vδ2 T cells was assessed by measuring the relative number of surviving target cells in a HD-PBMC-AML cell co-culture using flow cytometry.
Then, KG1a AML cells were stained with CellTrace CFSE Proliferation dye (ThermoFisher) to allow for specific detection by flow cytometry, counted, put into a co-culture with thawed HD-PBMC and treated with the anti-BTN3A mAbs ICT01 or m20.1 or their respective isotype controls (hIgG1S or mIgG1) in PBMC medium (RPMI 1640 Medium supplemented with 10% Fetal Bovine Serum (FBS) and 1 mM Sodium Pyruvate). On day one of culture, increasing concentrations of Venetoclax (0-0.4 μM), 5-Azacytidine (0-0.4 μM) or the combination were added. Cells were harvested on day 3 of co-culture, centrifuged at 1800 rpm for 5 minutes and then incubated 10 minutes at room temperature (RT) with 25 μl of FcR blocking reagent (Miltenyi Biotec) before adding 25 μL of the following antibody mix prepared in PBS+2% FBS+2 mM EDTA (FACS buffer): anti-CD56-BV421, CD19-BV421, CD14-BV785, Tyb-PE and CD3-AF700 antibodies for the identification of immune subsets, and a viability marker (LIVE/DEAD™ Fixable Dead Cell Stain) was added to distinguish live and dead cells. Cells were incubated 20 minutes at room temperature, washed once in FACS buffer and once in AnnexinV staining buffer. An AnnexinV-APC probe mixed with CountBright Absolute Counting Beads (Invitrogen) was added to determine apoptosis and relative cell numbers, followed by 15 minutes incubation at RT before flow cytometry analysis. […]
On the technique in general: A flow cytometer gives signals particle by particle.

For test [3], the system named is MOLM14 cells. Kind of test: Killing of MOLM14 AML cells in co-culture with HD-PBMC (flow cytometry). Conditions: alone or with ICT01 0.1 μg/mL, HD-PBMC ratio 5:1, 2 days. The procedure: as §1
The effect of the three Bcl-2 family member inhibitors ABT-737, Navitoclax and MIK665, on ICT01-induced killing of AML cell lines by Vγ9Vδ2 T cells was assessed by measuring the relative number of surviving target cells in a HD-PBMC-AML cells co-culture using flow cytometry.
For assays using ABT-737 or Navitoclax, KG1a cells were used. […] Therefore, MOLM14 cells, which express MCL-1, were used in killing assays assessing the activity of ICT01 combined with MIK665.

Setting [4] is: in presence of ICT01 (1 μg/mL), read-out: EC50 of Vγ9Vδ2 T cell death.
[5] abbreviates: Homo sapiens, T-cell, read-out: EC50 of Vγ9Vδ2 T cell death.
[6] abbreviates: Homo sapiens, T-cell, inhibitor alone (FIG. 2a), read-out: EC50 of apoptosis and death of Vγ9Vδ2 T cells.
Setting [7] is: Bcl-2 family inhibitor at 0.25 μM.
Setting [8] is: Bcl-2 family inhibitor at 0.5 μM.

Consider `COc1ccccc1-c1nccc(COc2ccccc2C[C@@H](Oc2ncnc3sc(-c4ccc(F)cc4)c(-c4ccc(OCCN5CCN(C)CC5)c(Cl)c4C)c23)C(=O)O)n1` [MIK665, (R)-2-((5-(3-chloro-2-methyl-4-(2-(4-methylpiperazin-1-yl)ethoxy)phenyl)-6-(4-fluorophenyl)thieno[2,3-d]pyrimidin-4-yl)oxy)-3-(2-((2-(2-methoxyphenyl)pyrimidin-4-yl)methoxy)phenyl)propanoic acid], for which the values for the EC50 in test [1] (setting [4]) and in test [1] (setting [6]) were 0.78 µM and 0.24 µM, respectively. Further, the CC50 in test [1] (setting [5]) amounted to 0.24 µM. For the same compound, the “sensitivity of KG1a to MIK665 treatment” value in test [2] (cell line does not express MCL-1) is reported as “completely resistant”. Also, the “cell death / reduction of living MOLM14 cells as compared to control” value is ~ 52% in test [3] (MIK665 at 0.025 μM) and ~ 72% in test [3] (MIK665 at 0.05 μM).
For the compound `CC1(C)CCC(c2ccc(Cl)cc2)=C(CN2CCN(c3ccc(C(=O)NS(=O)(=O)c4ccc(N[C@H](CCN5CCOCC5)CSc5ccccc5)c(S(=O)(=O)C(F)(F)F)c4)cc3)CC2)C1` [Navitoclax, 4-[4-[[2-(4-chlorophenyl)-5,5-dimethylcyclohexen-1-yl]methyl]piperazin-1-yl]-N-[4-[[(2R)-4-morpholin-4-yl-1-phenylsulfanylbutan-2-yl]amino]-3-(trifluoromethylsulfonyl)phenyl]sulfonylbenzamide], the EC50 in test [1] (setting [4]) amounted to 0.2 µM; in test [1] (setting [6]) it was 0.16 µM. Besides, in test [1] (setting [5]), the CC50 amounted to 0.16 µM. Further, the “KG1a cell death / reduction of living KG1a cells as compared to control” value in test [2] (setting [7]) was ~ 51%; in test [2] (setting [8]) it was ~ 71%.
`CN(C)CC[C@H](CSc1ccccc1)Nc1ccc(S(=O)(=O)NC(=O)c2ccc(N3CCN(Cc4ccccc4-c4ccc(Cl)cc4)CC3)cc2)cc1[N+](=O)[O-]` [ABT-737]: the EC50 was determined as 0.46 µM in test [1] (setting [4]) and 0.24 µM in test [1] (setting [6]). For the same compound, in test [1] (setting [5]), the CC50 is 0.23 µM. Moreover, the results for the “KG1a cell death / reduction of living KG1a cells as compared to control” value in test [2] (setting [7]) and in test [2] (setting [8]) were ~ 34% and ~ 54%, respectively.
